For two molecules, IC50 and Activity results are on record in ChEMBL document CHEMBL3593161, “Discovery of potent and selective nonplanar tankyrase inhibiting nicotinamide mimics” (Bioorg Med Chem, 2015).

In series [1] the target is T1, Protein mono-ADP-ribosyltransferase PARP3 (Homo sapiens, UniProt Q9Y6F1).
T1 sequence (Q9Y6F1 whole entry): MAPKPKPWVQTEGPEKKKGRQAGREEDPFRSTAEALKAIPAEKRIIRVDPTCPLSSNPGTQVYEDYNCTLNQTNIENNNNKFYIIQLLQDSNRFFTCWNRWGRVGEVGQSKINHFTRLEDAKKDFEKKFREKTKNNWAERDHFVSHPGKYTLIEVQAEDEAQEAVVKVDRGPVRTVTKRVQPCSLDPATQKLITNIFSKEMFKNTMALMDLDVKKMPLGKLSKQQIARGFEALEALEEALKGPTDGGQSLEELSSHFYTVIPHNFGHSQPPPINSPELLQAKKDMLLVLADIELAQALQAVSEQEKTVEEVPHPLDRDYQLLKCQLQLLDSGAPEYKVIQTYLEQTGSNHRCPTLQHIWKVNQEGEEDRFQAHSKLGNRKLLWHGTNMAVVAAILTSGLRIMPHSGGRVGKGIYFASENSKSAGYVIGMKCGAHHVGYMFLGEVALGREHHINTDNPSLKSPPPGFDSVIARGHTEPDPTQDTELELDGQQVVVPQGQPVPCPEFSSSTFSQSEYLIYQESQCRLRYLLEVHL
Kind of series: Inhibition of full-length human ARTD3 using 500 nM NAD substrate after 1 hrs incubation.

Series [2] deals with Protein mono-ADP-ribosyltransferase PARP4 (Homo sapiens, UniProt Q9UKK3). Briefly: Inhibition of human ARTD4 (250 to 565) using 500 nM NAD substrate after 2.5 hrs incubation.
Series [3] concerns the target Poly [ADP-ribose] polymerase 1 (Homo sapiens, UniProt P09874). Kind of series: Inhibition of full-length human ARTD1 using 500 nM NAD substrate after 1 hr incubation.
Series [4] concerns the target T2, Poly [ADP-ribose] polymerase tankyrase-2 (Homo sapiens, UniProt Q9H2K2).
T2 sequence (Q9H2K2 whole entry): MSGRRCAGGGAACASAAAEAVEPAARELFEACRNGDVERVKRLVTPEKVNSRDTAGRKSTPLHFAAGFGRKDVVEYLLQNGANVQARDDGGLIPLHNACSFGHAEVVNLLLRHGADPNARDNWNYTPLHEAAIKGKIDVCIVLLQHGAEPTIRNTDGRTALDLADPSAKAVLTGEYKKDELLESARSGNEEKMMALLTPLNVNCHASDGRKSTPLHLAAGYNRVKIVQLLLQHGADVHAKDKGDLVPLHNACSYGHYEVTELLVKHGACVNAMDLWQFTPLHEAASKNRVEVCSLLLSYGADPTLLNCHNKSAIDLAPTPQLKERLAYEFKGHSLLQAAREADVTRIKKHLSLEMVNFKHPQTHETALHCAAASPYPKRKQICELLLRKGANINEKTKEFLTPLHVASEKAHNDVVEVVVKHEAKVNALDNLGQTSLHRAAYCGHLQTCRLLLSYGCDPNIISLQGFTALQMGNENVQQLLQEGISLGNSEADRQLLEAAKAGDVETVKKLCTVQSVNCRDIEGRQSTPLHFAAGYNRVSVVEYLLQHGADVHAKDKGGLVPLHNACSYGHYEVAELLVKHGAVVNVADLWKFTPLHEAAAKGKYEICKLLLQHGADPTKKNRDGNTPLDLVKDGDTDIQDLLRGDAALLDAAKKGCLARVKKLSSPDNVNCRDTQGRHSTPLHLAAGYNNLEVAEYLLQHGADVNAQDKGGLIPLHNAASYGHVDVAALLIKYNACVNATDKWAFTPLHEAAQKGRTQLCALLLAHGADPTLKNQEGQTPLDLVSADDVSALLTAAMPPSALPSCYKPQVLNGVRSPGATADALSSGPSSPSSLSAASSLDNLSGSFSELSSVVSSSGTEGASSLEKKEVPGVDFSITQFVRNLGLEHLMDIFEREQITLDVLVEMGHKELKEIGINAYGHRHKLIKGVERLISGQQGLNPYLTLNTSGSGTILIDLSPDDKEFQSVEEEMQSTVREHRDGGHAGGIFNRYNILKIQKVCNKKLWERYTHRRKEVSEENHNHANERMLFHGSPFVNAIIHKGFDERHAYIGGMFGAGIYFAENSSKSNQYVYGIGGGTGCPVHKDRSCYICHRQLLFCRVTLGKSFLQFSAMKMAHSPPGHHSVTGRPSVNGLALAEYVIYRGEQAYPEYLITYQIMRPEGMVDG
Description: Inhibition of human TNKS2 (956 to 1161 and 873 to 1161) using 500 nM NAD substrate after 20 mins incubation by fluorescence assay

Another series deals with HEK293. Kind of series: Cytotoxicity against HEK293 cells assessed as cell viability at 2.5 to 10 uM. The series is classed as cell-based. The conditions noted are these: human, hek293, 10 µM.
Series [5] addresses Poly [ADP-ribose] polymerase 2 (Homo sapiens, UniProt Q9UGN5). Kind of series: Inhibition of full-length human ARTD2 using 500 nM NAD substrate after 3 hrs incubation.
Series [6] deals with T3, Protein mono-ADP-ribosyltransferase PARP15 (Homo sapiens, UniProt Q460N3).
T3 sequence (Q460N3 whole entry): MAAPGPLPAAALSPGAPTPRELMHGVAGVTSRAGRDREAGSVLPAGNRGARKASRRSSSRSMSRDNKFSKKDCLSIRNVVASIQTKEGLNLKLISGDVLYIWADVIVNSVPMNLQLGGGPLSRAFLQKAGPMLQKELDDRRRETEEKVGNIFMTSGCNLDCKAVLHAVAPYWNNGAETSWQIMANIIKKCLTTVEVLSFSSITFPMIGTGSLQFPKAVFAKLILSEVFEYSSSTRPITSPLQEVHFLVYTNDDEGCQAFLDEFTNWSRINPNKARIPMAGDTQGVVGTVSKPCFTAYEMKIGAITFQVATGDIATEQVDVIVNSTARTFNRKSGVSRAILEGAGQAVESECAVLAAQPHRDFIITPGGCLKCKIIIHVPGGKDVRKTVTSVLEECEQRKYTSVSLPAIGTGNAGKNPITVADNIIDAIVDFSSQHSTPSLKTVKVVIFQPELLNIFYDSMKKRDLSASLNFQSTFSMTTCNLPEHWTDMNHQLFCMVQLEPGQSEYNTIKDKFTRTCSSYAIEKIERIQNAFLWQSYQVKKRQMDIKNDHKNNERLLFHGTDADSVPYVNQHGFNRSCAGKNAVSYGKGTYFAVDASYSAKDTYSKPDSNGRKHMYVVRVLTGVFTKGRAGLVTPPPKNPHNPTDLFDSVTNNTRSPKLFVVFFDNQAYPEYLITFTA
Kind of series: Inhibition of human ARTD7 (460 to 656) using 250 nM NAD substrate at 10 uM after 2 hrs incubation.

Values joined by “and” are separate entries in the source; they are usually repeats but may differ in a detail not shown here. Identical values can stand only once. Bounds are passed on as bounds.

Sequence of Poly [ADP-ribose] polymerase 1 (P09874 whole entry): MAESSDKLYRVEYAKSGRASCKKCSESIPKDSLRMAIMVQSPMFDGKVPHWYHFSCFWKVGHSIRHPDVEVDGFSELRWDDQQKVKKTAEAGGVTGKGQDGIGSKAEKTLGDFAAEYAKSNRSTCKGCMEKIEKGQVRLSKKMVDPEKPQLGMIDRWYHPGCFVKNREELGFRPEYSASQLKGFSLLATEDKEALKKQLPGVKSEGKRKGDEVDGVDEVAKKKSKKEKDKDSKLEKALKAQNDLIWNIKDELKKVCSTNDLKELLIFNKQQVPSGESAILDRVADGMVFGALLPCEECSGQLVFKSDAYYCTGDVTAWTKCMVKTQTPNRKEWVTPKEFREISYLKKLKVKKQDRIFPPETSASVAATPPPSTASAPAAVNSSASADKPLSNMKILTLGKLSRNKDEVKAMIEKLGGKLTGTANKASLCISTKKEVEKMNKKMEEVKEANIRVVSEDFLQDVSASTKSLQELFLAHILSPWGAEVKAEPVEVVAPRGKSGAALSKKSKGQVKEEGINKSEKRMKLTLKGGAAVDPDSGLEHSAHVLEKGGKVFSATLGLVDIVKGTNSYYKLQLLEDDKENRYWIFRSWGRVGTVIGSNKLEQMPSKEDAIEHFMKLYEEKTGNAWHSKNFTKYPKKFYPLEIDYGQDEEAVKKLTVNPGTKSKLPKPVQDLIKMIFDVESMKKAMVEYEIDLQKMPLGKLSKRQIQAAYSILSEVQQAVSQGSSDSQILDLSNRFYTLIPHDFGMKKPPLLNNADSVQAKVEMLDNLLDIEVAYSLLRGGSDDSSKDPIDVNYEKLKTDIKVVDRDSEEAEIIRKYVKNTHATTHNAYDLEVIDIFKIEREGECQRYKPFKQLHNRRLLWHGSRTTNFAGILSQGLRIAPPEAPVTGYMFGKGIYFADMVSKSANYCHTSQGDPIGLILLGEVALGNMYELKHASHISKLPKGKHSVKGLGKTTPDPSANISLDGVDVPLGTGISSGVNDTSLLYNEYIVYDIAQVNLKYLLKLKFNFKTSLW
Sequence of Protein mono-ADP-ribosyltransferase PARP4 (Q9UKK3 whole entry): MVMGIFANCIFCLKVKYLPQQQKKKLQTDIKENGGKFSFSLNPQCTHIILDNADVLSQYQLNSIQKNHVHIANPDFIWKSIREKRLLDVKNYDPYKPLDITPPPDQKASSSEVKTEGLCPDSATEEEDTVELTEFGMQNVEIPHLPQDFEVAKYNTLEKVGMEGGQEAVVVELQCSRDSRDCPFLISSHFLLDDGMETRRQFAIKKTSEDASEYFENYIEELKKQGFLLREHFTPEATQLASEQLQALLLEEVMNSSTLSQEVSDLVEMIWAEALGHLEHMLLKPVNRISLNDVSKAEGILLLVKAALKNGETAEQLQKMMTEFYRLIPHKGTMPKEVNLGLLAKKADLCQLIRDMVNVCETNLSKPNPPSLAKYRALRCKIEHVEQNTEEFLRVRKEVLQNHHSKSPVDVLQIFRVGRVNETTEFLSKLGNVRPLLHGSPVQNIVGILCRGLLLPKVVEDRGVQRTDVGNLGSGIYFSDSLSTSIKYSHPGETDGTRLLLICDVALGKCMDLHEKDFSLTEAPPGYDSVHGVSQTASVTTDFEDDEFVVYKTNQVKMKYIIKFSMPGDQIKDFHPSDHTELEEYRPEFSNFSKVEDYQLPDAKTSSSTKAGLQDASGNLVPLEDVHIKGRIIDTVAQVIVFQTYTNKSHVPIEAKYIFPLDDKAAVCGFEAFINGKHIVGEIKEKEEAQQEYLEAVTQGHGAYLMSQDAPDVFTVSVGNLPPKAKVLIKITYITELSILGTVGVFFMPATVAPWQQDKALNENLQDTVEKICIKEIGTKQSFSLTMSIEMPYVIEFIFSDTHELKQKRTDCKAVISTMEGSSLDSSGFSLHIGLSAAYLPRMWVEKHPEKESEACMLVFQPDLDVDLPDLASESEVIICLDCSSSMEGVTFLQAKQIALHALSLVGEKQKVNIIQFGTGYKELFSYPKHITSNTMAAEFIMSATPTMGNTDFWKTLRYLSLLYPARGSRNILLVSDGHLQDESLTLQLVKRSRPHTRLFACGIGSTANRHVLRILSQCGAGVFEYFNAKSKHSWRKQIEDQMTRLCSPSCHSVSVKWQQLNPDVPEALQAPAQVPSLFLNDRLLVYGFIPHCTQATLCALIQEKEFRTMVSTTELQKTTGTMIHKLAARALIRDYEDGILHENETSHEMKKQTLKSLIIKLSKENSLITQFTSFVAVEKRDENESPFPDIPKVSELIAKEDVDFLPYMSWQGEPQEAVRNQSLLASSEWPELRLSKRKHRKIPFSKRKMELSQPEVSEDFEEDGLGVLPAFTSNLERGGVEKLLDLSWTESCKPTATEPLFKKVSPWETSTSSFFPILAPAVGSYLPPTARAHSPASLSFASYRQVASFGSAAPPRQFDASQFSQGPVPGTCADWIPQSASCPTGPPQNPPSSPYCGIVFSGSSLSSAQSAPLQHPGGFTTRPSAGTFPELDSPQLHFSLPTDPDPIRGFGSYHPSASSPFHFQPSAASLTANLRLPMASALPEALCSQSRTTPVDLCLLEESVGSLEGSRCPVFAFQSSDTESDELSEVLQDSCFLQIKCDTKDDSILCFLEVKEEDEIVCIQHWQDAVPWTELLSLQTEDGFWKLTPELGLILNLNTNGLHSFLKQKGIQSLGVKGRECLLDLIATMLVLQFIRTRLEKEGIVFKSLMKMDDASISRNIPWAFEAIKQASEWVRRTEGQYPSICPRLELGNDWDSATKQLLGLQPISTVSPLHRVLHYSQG
Sequence of Poly [ADP-ribose] polymerase 2 (Q9UGN5 whole entry): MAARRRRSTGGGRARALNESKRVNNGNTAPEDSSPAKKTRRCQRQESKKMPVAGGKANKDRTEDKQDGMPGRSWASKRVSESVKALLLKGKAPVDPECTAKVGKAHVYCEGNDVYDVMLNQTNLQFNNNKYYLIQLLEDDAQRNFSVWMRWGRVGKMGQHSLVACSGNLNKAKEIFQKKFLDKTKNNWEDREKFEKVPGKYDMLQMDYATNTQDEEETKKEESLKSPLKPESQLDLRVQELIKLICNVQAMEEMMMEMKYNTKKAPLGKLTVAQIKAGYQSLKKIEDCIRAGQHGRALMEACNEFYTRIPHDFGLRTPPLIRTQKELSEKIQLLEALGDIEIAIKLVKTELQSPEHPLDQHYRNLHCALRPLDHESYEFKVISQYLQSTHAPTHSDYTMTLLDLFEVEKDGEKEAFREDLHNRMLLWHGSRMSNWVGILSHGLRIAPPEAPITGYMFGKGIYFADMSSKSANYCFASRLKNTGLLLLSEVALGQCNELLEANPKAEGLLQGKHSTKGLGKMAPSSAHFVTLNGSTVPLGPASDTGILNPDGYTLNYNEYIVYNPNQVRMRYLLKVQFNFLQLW

As for `CC(C)c1ccc(C2NC(=O)c3ccccc3N2)cc1` (centres undefined), the half-maximal inhibitory concentration (IC50) (as a rule, the concentration that inhibits the measured activity by half) was 50 µM in series [1]; more than 100 µM in series [2]; more than 100 µM in series [3]; 230 nM and 234 nM in series [4]; more than 100 µM in series [5]; more than 10 µM in series [6]. In addition, in the series on HEK293, the Activity entry was “Non-toxic”.

In the case of `CC(C)(C)c1ccc(C2NC(=O)c3ccccc3N2)cc1` (centres undefined), the IC50 was 34 µM in series [1]; more than 100 µM in series [2]; more than 100 µM in series [3]; 150 nM and 155 nM in series [4]; more than 100 µM in series [5]; more than 10 µM in series [6]. For the same molecule, in the series with HEK293, the Activity result is reported as “Non-toxic”.
